According to ChEMBL document CHEMBL1139308, “Identification and synthesis of 2,7-diamino-thiazolo[5,4-d]pyrimidine derivatives as TRPV1 antagonists” (Bioorg Med Chem Lett, 2009):

How the values were obtained:
[1] = molecular target: Transient receptor potential cation channel subfamily V member 1 (Homo sapiens, UniProt Q8NER1); experiment: Antagonist activity at human TRPV1 expressed in HEK293 cells assessed as inhibition of capsaicin-induced calcium flux; type: functional, cell-based
[2] = molecular target: Transient receptor potential cation channel subfamily V member 1 (Rattus norvegicus, UniProt O35433); experiment: Antagonist activity at rat TRPV1 expressed in HEK293 cells assessed as inhibition of capsaicin-induced calcium flux; type: functional, cell-based
[3] = Clearance in fasted Sprague-Dawley rat at 0.5 mg/kg, iv and 2 mg/kg, po; type: ADME, organism-based; conditions: in vivo
[4] = Half life in fasted Sprague-Dawley rat at 0.5 mg/kg, iv and 2 mg/kg, po; type: ADME, organism-based; conditions: in vivo
[5] = Volume of distribution at steady state in fasted Sprague-Dawley rat at 0.5 mg/kg, iv and 2 mg/kg, po; type: ADME, organism-based; conditions: in vivo, read-out: Vdss

Transient receptor potential cation channel subfamily V member 1 (Rattus norvegicus, UniProt O35433), sequence (O35433 whole entry): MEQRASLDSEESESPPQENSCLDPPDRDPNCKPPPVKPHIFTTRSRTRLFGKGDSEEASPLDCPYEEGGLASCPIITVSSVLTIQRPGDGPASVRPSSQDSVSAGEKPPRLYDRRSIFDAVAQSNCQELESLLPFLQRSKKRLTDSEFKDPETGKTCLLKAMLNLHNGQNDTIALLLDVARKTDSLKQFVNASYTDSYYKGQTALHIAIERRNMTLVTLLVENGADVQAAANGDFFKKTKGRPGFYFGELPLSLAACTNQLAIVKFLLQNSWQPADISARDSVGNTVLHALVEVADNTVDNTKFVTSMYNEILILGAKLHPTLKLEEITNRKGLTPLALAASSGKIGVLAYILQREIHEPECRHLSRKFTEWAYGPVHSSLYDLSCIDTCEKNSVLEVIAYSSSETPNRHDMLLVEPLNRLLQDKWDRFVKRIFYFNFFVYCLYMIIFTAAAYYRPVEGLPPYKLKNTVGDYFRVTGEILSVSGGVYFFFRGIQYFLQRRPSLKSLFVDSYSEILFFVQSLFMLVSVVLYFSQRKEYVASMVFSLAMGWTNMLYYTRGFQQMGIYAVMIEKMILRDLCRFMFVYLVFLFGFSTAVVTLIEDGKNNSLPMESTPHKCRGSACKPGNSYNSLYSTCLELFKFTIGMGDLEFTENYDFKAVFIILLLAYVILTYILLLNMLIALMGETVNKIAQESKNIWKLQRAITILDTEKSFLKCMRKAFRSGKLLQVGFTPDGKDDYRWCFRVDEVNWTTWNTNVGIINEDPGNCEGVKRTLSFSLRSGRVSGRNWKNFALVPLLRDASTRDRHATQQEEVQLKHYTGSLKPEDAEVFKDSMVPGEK
Transient receptor potential cation channel subfamily V member 1 (Homo sapiens, UniProt Q8NER1), sequence (Q8NER1 whole entry): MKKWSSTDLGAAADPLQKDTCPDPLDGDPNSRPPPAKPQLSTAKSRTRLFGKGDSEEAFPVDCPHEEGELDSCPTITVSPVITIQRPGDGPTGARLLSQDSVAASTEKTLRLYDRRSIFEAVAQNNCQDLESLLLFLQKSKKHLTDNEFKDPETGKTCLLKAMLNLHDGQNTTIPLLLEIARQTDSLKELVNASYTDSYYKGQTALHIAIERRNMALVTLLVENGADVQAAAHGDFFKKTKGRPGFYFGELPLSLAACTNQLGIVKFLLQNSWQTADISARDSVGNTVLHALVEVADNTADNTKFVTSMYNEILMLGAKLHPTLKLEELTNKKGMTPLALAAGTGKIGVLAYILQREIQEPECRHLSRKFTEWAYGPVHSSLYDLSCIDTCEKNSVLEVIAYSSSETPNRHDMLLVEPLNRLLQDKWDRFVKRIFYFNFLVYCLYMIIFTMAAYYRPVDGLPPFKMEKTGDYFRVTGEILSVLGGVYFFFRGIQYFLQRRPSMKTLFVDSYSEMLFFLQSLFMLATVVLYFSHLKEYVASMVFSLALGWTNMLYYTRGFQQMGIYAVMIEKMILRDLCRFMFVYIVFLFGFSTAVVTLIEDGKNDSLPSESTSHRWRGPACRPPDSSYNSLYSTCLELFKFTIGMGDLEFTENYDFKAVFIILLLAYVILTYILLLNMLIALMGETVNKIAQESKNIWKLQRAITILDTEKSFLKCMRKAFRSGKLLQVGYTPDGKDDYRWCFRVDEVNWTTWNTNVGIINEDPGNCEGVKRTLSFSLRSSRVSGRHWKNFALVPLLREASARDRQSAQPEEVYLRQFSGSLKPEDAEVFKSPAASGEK

Row | IC50 [1] [nM] | IC50 [2] [nM] | clearance [3] [mL/min/kg] | half-life [4] [h] | Vd [5] [L/kg] | Structure (SMILES)
1 | 69 | 57 | – | – | – | NC(=O)c1cc(Cl)c(Nc2nc3c(Nc4ccc(C(F)(F)F)cc4)ncnc3s2)c(Cl)c1
2 | > 5000 | > 5000 | – | – | – | FC(F)(F)c1ccc(Nc2ncnc3sc(Nc4ncccc4C(F)(F)F)nc23)cc1
3 | > 5000 | – | – | – | – | FC(F)(F)c1ccc(Nc2nc3c(Nc4ccc(C(F)(F)F)cc4)ncnc3s2)cc1
4 | > 5000 | > 5000 | – | – | – | FC(F)(F)c1ccc(Nc2cccc3sc(Nc4c(Cl)cccc4Cl)nc23)cc1
5 | 30 | 16 | – | – | – | FC(F)(F)c1ccc(Nc2nc(N3CCOCC3)nc3sc(Nc4c(Cl)cccc4Cl)nc23)cc1
6 | 5 | 3 | 60 | 1.2 | 2.2 | CS(=O)(=O)c1ccc(Nc2ncnc3sc(Nc4c(Cl)cccc4Cl)nc23)cc1
7 | 15 | 71 | – | – | – | FC(F)(F)c1ccc(Nc2ncnc3c2CCN(c2ncccc2C(F)(F)F)C3)cc1
8 | > 5000 | > 1000 | – | – | – | CN(c1ccc(C(F)(F)F)cc1)c1ncnc2sc(Nc3c(Cl)cccc3Cl)nc12
9 | 59 | 43 | – | – | – | CN(C)c1nc(Nc2ccc(C(F)(F)F)cc2)c2nc(Nc3c(Cl)cccc3Cl)sc2n1
10 | – | 119 | – | – | – | CC(C)N1CCN(c2nc(Nc3ccc(C(F)(F)F)cc3)c3nc(Nc4c(Cl)cccc4Cl)sc3n2)CC1
11 | 48 | 34 | – | – | – | CCN(CC)c1nc(Nc2ccc(C(F)(F)F)cc2)c2nc(Nc3c(Cl)cccc3Cl)sc2n1
12 | 59 | 25 | – | – | – | FC(F)(F)c1ccc(Nc2nc(N3CCC3)nc3sc(Nc4c(Cl)cccc4Cl)nc23)cc1
13 | 31 | – | – | – | – | CC(C)(C(=O)O)c1ccc(Nc2ncnc3sc(Nc4c(Cl)cccc4Cl)nc23)cc1
14 | > 5000 | > 5000 | – | – | – | FC(F)(F)c1ccc(Sc2ncnc3sc(Nc4c(Cl)cccc4Cl)nc23)cc1
15 | 3 | 3 | – | – | – | FC(F)(F)c1ccc(Nc2nc(NCC3CC3)nc3sc(Nc4c(Cl)cccc4Cl)nc23)cc1
16 | > 5000 | > 5000 | – | – | – | FC(F)(F)c1ccc(Nc2ncnc3sc(Nc4cccc(C(F)(F)F)c4)nc23)cc1
17 | – | 0.5 | – | – | – | O=S(=O)(c1ccc(Nc2ncnc3sc(Nc4c(Cl)cccc4Cl)nc23)cc1)N1CCCC1
18 | 502 | 540 | – | – | – | CN(c1nc2c(Nc3ccc(C(F)(F)F)cc3)ncnc2s1)c1c(Cl)cccc1Cl
19 | > 5000 | > 5000 | – | – | – | NC(=O)c1ccc(Nc2ncnc3sc(Nc4c(Cl)cccc4Cl)nc23)cc1
20 | > 5000 | > 5000 | – | – | – | CC(C)(C)c1ccc(Oc2ncnc3sc(Nc4c(Cl)cccc4Cl)nc23)cc1
21 | 64 | 32 | – | – | – | FC(F)(F)c1ccc(Nc2ncnc3sc(Nc4ccccc4Cl)nc23)cc1
22 | 21 | 9 | – | – | – | FC(F)(F)c1ccc(Nc2ncnc3sc(Nc4c(Cl)cccc4Cl)nc23)cc1Cl
23 | 43 | 26 | – | – | – | CSc1ccccc1Nc1nc2c(Nc3ccc(C(F)(F)F)cc3)ncnc2s1
24 | 11 | – | – | – | – | CC(C)(C)c1ccc(Nc2ncnc3sc(Nc4c(Cl)cccc4Cl)nc23)cc1
25 | > 5000 | 590 | – | – | – | NS(=O)(=O)c1ccc(Nc2ncnc3sc(Nc4c(Cl)cccc4Cl)nc23)cc1
26 | > 5000 | > 5000 | – | – | – | FC(F)(F)c1ccccc1Nc1ncnc2sc(Nc3c(Cl)cccc3Cl)nc12
27 | – | 2 | – | – | – | Cc1nc(Nc2ccc(C(F)(F)F)cc2)c2nc(Nc3c(Cl)cccc3Cl)sc2n1
